Laboratory results from paper PMC3095640, “Potent Host-Directed Small-Molecule Inhibitors of Myxovirus RNA-Dependent RNA-Polymerases” (PLoS ONE, 2011).
Like-named read-outs stand apart in the source and are kept apart here.

Experiments:
SOI Influenza A/Texas = test: Virus yield reduction assay, SOI influenza A/Texas; type: cell-based, swine-origin influenza virus isolate S-OIV Texas; settings: genome copy numbers of released progeny particles by TaqMan RT-PCR
RSV (Long) = test: microbe, parasite or virus in culture; type: cell-based, respiratory syncytial virus strain Long; settings: human respiratory syncytial virus; titered through plaque assaying
MuV (S. Africa) = test: microbe, parasite or virus in culture; type: cell-based, mumps virus strain South Africa; settings: Mumps orthorubulavirus; titered through plaque assaying
HPIV3 = test: microbe, parasite or virus in culture; type: cell-based, human parainfluenzavirus type 3; settings: Human respirovirus 3; titered through plaque assaying
MeV (Alaska) = test: microbe, parasite or virus in culture; type: cell-based, measles virus isolate MVi/Alaska.USA/16.00; settings: Measles morbillivirus
vaccinia virus = type: cell-based; settings: compared with activity against myxoviruses
[1] = Cytotoxicity (metabolic activity), Vero-Slam cells; type: cell-based; settings: African green monkey, highest concentration assessed 75 µM, read-out: CC50, Toxicity, Metabolic activity
Protocol: (§1) A non-radioactive cytotoxicity assay (CytoTox 96 Non-Radioactive Cytotoxicity Assay, Promega) was employed to determine the metabolic activity of cell after exposure to the compound. In a 96-well plate format, 10,000 cells per well were incubated at 37°C for 24 hours in four replicates per concentration tested in the presence of compound in two-fold dilutions starting at 75 µM. Substrate was then added and color development measured at 490 nm using a BioRad plate reader. Values were calculated according to the formula [% toxicity = 100−((experimental-background)/(maximum(vehicle treated)-background)*100)]. Values were plotted in dose-response curves and, if applicable, CC50 concentrations calculated.

[2] = Cytotoxicity (metabolic activity), NIH-3T3; type: cell-based, Rodent-mouse; settings: mouse, NIH-3T3 cells, highest concentration assessed 75 µM
Protocol: as §1

PBMCs = test: Metabolic activity of primary human PBMCs; type: cell-based; settings: 24 hours exposure
Protocol: as §1

smooth muscle cells = test: Metabolic activity of primary human smooth muscle cells; type: cell-based; settings: 24 hours exposure
Protocol: as §1

[3] = tested on: different established cell lines (HeLa, A549, HepG2, Vero-Slam, MDCK); test: Metabolic activity of different established cell lines; type: cell-based, human, primate, canine; settings: at 75 µM, 24 hours
Protocol: as §1

HeLa cells = test: Flow-cytometric analysis of cell cycle progression; type: cell-based, human; settings: JMN3-003 10 µM 36 hours, nocodazole 200 ng/ml
Protocol: Actively proliferating HeLa cells were exposed to JMN3-003 (10 µM), hydroxyurea (4 mM), or nocodazole (200 ng/ml) for 36 hours, followed by resuspension in buffer I (20 mM citrate/PO, pH 3.0, 0.1 mM EDTA, 0.2 M Sucrose, 0.1% Triton X-100) and staining in buffer II (10 mM Citrate/PO, pH 3.8, 0.1 M sodium chloride, 20 µg/ml acridine orange) as described. Green fluorescence at 525 nm resulting from DNA intercalating acridine orange was then measured using a BD LSRII flow cytometer and FlowJo software (Tree Star) for data analysis. For comparison, unstained and stained, solvent-only exposed cells were examined in parallel.

Vero cells = test: Cell growth rates after compound wash-out; type: cell-based; settings: 10 µM for 30 hours, 72-hour growth
Protocol: Vero cells were seeded at a density of 6×10^5 cells and incubated in the presence of 10 µM JMN3-003 or vehicle only for 30 hours at 37°C. Cells were then washed extensively and reseeded at a density of 1×10^5 cells per well, followed by continued incubation at 37°C and assessment of life/dead cell numbers every 24 hours using a Countess automated cell counter (Invitrogen). Cells were reseeded as before when fastest growing cultures approached confluency. Growth rates were calculated for each 24-hour time interval using the Prism software package (GraphPad Software Inc.) based on the formula Y = Y0*exp(K*X) with Y equaling life cell numbers, Y0 the Y value at the starting time (t0), and K the growth constant equaling ln(2)/doubling-time.

Influenza A/WSN [4] = test: Immunodetection of virus-encoded influenza A/WSN M2; type: cell-based; settings: 100 nM
Protocol: Aliquots with equal total concentrations of cleared lysates (20,000×g; 10 min; 4°C) were mixed with 2x-urea buffer (200 mM Tris, pH 6.8; 8 M urea; 5% sodium dodecyl sulfate (SDS); 0.1 mM EDTA; 0.03% bromphenol blue; 1.5% dithiothreitol) and denatured for 25 min at 50°C. Samples were then fractionated on 10% SDS-polyacrylamide gels, blotted to polyvinylidene difluoride (PVDF) membranes (Millipore) and subjected to enhanced chemiluminescence detection (Pierce) using specific antisera directed against phosphorylated or non-phosphorylated cdc2-cyclin B kinase (Cell Signaling Technology), GAPDH (Abcam), the cytosolic tail of the MeV F protein [81], or influenza A/WSN virus M2 (Thermo Scientific). Immunostained PVDF membranes were developed using a ChemiDoc XRS digital imaging system (Bio-Rad) and horseradish peroxidase conjugated anti-species IgG (mouse or rabbit) antibodies. For densitometry, signals were quantified using the QuantityOne software package (Bio-Rad).

MeV-Alaska [5] = test: Cell priming: pre-treatment, wash-out, then MeV-Alaska infection; type: cell-based, measles virus; settings: 1.0 µM for 60 minutes
MeV-Alaska [6] = type: cell-based, measles virus; settings: 100 nM, 40 hours
Influenza A/WSN [7] = test: Quantitation of influenza A/WSN antigenome and released progeny genome copies; type: cell-based; settings: MDCK cells, 24 hours
MeV-Alaska [8] = test: In vitro virus adaptation (resistance induction); type: cell-based, measles virus; settings: after 90 days of continued viral incubation
Protocol: Adaptations were carried out essentially as we have previously described. Briefly, Vero-SLAM cells were infected with MeV-Alaska at an MOI of […] and incubated in the presence of gradually increasing JMN3-003 concentrations starting at 0.5 µM. Equally infected cells treated with the virus polymerase targeted RdRp inhibitor AS-136A were examined in parallel. When cultures became over confluent, cells were reseeded for continued incubation in the presence of the same compound concentration as before. At detection of extensive cell-to-cell fusion, cell-associated viral particles were harvested, diluted 10-fold and used for parallel infections of fresh cell monolayers in the presence of compound at unchanged and doubled concentrations. Cultures treated with the highest compound concentrations in which virus-induced cytopathicity became detectable were used for further adaptation. The approach was terminated after 90 days of continued incubation or when virus-induced cytopathicity was readily detectable in the presence of 30 µM compound in accordance with previous results.

Compound: COc1ccc(-n2c(SC(C)C(=O)Nc3ccc(C)cc3Cl)nc3ccccc32)cc1 (stereo not drawn) [JMN3-003]
- EC50 (SOI Influenza A/Texas): 0.04 ± 0.01 µM
- EC50 (RSV (Long)): 0.07 ± 0.01 µM
- EC50 (MuV (S. Africa)): 0.033 ± 0.031 µM
- EC50 (HPIV3): 0.08 ± 0.01 µM
- EC50 (MeV (Alaska); PBMC, hPBMC from a mixed pool of healthy donors, four-parameter non-linear regression, read-out: EC50, MeV-Alaska grown on human PBMCs): 0.09 ± 0.05 µM
- EC50 (MeV (Alaska); read-out: EC50, MeV (Alaska)): 0.03 ± 0.02 µM
- EC50 (MeV (Alaska); Vero-Slam, comparison curve of figure 2, read-out: EC50, MeV-Alaska grown on Vero-Slam cells): 0.04 ± 0.02 µM
- activity against vaccinia virus (vaccinia virus): to a lesser degree
- CC50 at 24 h [1]: > 75 µM
- CC50 at 24 h [2]: > 75 µM
- metabolic activity of primary human PBMCs (PBMCs): unaffected
- metabolic activity of primary human smooth muscle cells (smooth muscle cells): unaffected
- metabolic activity of different established cell lines [3]: unchanged
- DNA content of treated cells by flow cytometry (HeLa cells): accumulation of cells in a single population with 2N DNA content
- proliferation rates after removal of compound (Vero cells): proliferation rates resumed those of untreated control cells
- expression of virus-encoded proteins, orthomyxovirus infection (Influenza A/WSN [4]): fully blocked
- inhibitory effect after cell pre-treatment and wash-out (MeV-Alaska [5]): could not detect any substantial inhibitory effect
- reduction of viral mRNA and antigenome copy numbers relative to vehicle (MeV-Alaska [6]): > 100 fold
- drop in relative viral antigenome levels (Influenza A/WSN [7]): > 100 fold
- reduction in genome copies of released progeny virions (Influenza A/WSN [7]): > 10,000 fold
- change of the tolerated dose (MeV-Alaska [8]): only marginal increases in the tolerated dose
